Reference: patent US11052154B2, “Ras protein degradation inducing molecule and pharmaceutical composition” (Tokyo University of Science Foundation, priority 2016, dated 2021)

Molecular target: T1, endogenous wild-type K-Ras protein (Homo sapiens, UniProt P01116)
T1 construct: an endogenous wild-type K-Ras protein; endogenous in cells; host or cells: HeLa
Assay: Degradation of endogenous wild-type K-Ras protein in HeLa cells, Western blot analysis
Assay type: cell-based
Conditions: 48 hours after addition, vs control (DMSO), FIG. 5
Experimental: In Example 6, degradation (knockdown) of an endogenous wild-type K-Ras protein and wild-type H-Ras protein in HeLa cells to which TUS-007 had been added was evaluated by Western blot analysis.
HeLa cells were seeded in a 24-well plate at a cell density of 8×10^4 cells/well, and then cultured under conditions of 37° C. and 5 vol % CO2 for 16 hours.
After 16 hours from cell seeding, TUS-007 was added to HeLa cells as follows. As a medium, a serum-free medium (37° C.) in which 1 mass % L-glutamine solution (Sigma-Aldrich) was added to D-MEM (high D-glucose, phenol red, sodium pyruvate (Wako Pure Chemical Industries, Ltd.)) was used. It is noted that the L-glutamine solution was added immediately before use. A DMSO solution containing TUS-007 was mixed with the medium so that the concentration of DMSO was 1 vol %, and added to each well at 500 μL/well, and cultured under conditions of 37° C. and 5 vol % CO2. As a control, DMSO was used. […]
After electrophoresis, proteins were transferred to a PVDF membrane (Immobion™-P, Millipore) under conditions of 100 V and 2 hours using a tank-type blotting device and a transfer buffer (25 mM Tris-HCl, 195 mM glycine, 0.01% SDS, 15% methanol). […] Subsequently, the membrane was treated with a chemiluminescence reagent Immobilon™ Western (Millipore), and then chemiluminescence was detected using a lumino image analyzer LAS-3000 (FUJIFILM Corporation). […]

T1 sequence (P01116 1-188 isoform P01116-2): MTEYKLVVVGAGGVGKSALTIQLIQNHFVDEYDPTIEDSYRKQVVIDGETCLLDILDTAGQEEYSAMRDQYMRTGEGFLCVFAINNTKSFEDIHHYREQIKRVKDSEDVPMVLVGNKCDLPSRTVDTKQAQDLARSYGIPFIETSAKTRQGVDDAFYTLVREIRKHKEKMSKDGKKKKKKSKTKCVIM

CCC(C)[C@H](NC(=O)CCCCCCNC(=O)[C@H](CC(C)C)NC(=O)CNC(=O)c1cc(Cl)ccc1Cl)C(=O)Nc1ccc2[nH]c(Cc3c[nH]c4ccccc34)nc2c1 (stereo in doubt) [TUS-007]
amount of the endogenous wild-type K-Ras protein (Western blot): the amount of the endogenous wild-type K-Ras protein and wild-type H-Ras protein was reduced
